This note sets out measurements from patent US10501460B2, “Heterocyclic compounds and uses thereof” (Plexxikon Inc., priority 2013, dated 2019).

Each structure is given as a SMILES string. Some results are limits rather than exact numbers.

The experiment has as its system bromodomain. Briefly: Bromodomain cell assays of Example 40 (at least one of them). Format: cell-based. The settings on record: in at least one of the bromodomain cell assays described in Example 40. An excerpt: Published bromodomain inhibitors JQ1 and iBET 151 have shown activity in variety of cancer cells such leukemia and lymphoma, multiple myeloma cells, NUT midline carcinoma and glioblastoma cells (Dawson M A et al. 2011; Delmore J E 2011; Chen Z et al. 2013; Filippakopoulos P et al. 2010; Mertz J A et al. 2011; Ott C J et al. 2012). In this study, we test compounds in different cancer cell lines. MV-4-11 and MOLM-13 are AML cell lines harboring a MLL-AF4 and MLL-AF9 translocation, respectively. MM.1S is a multiple myeloma cell line. SK-N-AS, IMR-32 and SK-N-BE(2) are neuroblastoma cell lines. IMR-32 and SK-N-BE(2) cell lines harbor MYCN amplifications. MV-4-11, MM.1S, IMR-32, SK-N-AS and SK-N-BE(2) were obtained from ATCC (IL, USA) and MOLM-13 were purchased from DSMZ (Braunschweig, German). Cells are cultured as recommended by their sources. For growth inhibition studies 3000 cells are seeded in wells of a 96-well plate in 75 μL of culture media. After several hours, growth media containing compounds of formula (I) are added to the wells. Compound at a maximal concentration of 5 mM was serially diluted 1:3 for a total of 8 point titration with DMSO as a control. A 1 μL aliquot of each dilution point is added to 249 μL growth media and 75 μL is added to each well containing cells, providing 10 μM compound at the maximum concentration point. The final concentration of DMSO in all wells is 0.2%. Cells are incubated for 72 hours, and 25 μL of CellTiter Glo Reagent (Promega Ga., USA) is added to each well. Plates are shaken for approximately 10 minutes and chemiluminescent signal is read on Tecan microplate reader. The measured luminescence correlates directly with cell number.
All data is normalized to the mean of eight DMSO high control wells on each plate. A four parameter curve fit of the following formula was then applied: Y=a+(b−a)/(1+(x/c)^d) Where ‘a’ is the minimum, ‘b’ is the maximum, ‘c’ is the pIC50 and ‘d’ is the Hill slope. […] Myc Reporter Assay
In MV-4-11 cells, BRD2, BRD3 and BRD4 bind to the promoter region of MYC and regulate its transcription (Dawson M A et al. 2011). The literature bromodomain inhibitor iBET 151 could disrupt BRD4 recruitment to the MYC promoter and subsequently downregulate c-myc transcription (Dawson M A et al. 2011). Myc protein is a transcription factor that heterodimerizes with an obligatory partner Max and regulates the transcription of genes important for cell proliferation, differentiation, and apoptosis. This Myc reporter assay is used to monitor the inhibitory effect of compound of formula (I) on Myc dependent gene expression. Effective compounds could have potential therapeutic effects in Myc-driven tumors.
The MV-4-11 Myc reporter cell line is established by infecting MV-4-11 with VSV-g pseudotyped lentivirus expressing the firefly luciferase gene under the control of a minimal (m) CMV promoter and tandem repeats of the E-box transcriptional response element (TRE) (Qiagen IL, USA) and selecting cells in […] Puromycin.
The MV-4-11 Myc reporter cell line is maintained in Iscove's Modified Dulbecco's Medium containing 10% FBS, 1% PenStep and 2.5 μg/ml Puromycin. Cells are incubated at 37° C. in a humidified atmosphere with 5% CO2. 25,000 cells are seeded in 96-well plate in 50 μL of culture media. After several hours, growth media containing 2× compounds are added to the wells. Compound at a maximal concentration of 5 mM is serially diluted 1:3 for a total of 8 point titration. A 1 μl aliquot of each dilution point is added to 249 μl growth media and 50 μl is added to each well containing cells, providing 10 μM compound at the maximum concentration point. DMSO treated cells serve as a high control and 10 μM JQ1 treated cells serve as a low control. Cells are incubated for a further 24 hours and 25 μL of CellTiter-Fluo Reagent (Promega Ga., USA) is added to each well. Plates are shaken for approximately 2 minutes and incubated at 37° C. for 0.5 hour. […]
Turning to `CCc1[nH]c2ncc(-c3c(C)noc3C)cc2c1CC1CCC(F)(F)CC1` [P-0051, 4-[3-[(4,4-difluorocyclohexyl)methyl]-2-ethyl-1H-pyrrolo[2,3-b]pyridin-5-yl]-3,5-dimethyl-isoxazole], the half-inhibitory concentration (IC50) – broadly, the concentration at which inhibition is half-maximal – was less than 10 µM.
As for `Cc1noc(C)c1-c1cnc2ccn(S(=O)(=O)N3CCCCC3)c2c1` [P-0067, 3,5-dimethyl-4-[1-(1-piperidylsulfonyl)pyrrolo [3,2-b]pyridin-6-yl] isoxazole], the figure is less than 10 µM.
The value for `Cc1noc(C)c1-c1cnc2c(c1)c(C(O)C1CCC(F)(F)CC1)cn2C` (centres unmarked) [P-0101, (4,4-difluorocyclohexyl)-[5-(3,5-dimethylisoxazol-4-yl)-1-methyl-pyrrolo[2,3-b]pyridin-3-yl]methanol] was less than 10 µM; that for `Cc1noc(C)c1-c1cnc2c(I)c(C(F)(F)F)[nH]c2c1` [P-0225, 4-[3-iodo-2-(trifluoromethyl)-1H-pyrrolo[3,2-b]pyridin-6-yl]-3,5-dimethyl-isoxazole] was less than 10 µM; that for `Cc1noc(C)c1-c1ccc2c(-c3cnn(C)c3)cn(Cc3ccccc3F)c2c1` [P-0226, 4-[1-[(2-fluorophenyl)methyl]-3-(1-methylpyrazol-4-yl)indol-6-yl]-3,5-dimethyl-isoxazole] was less than 10 µM.
As for `Cc1noc(C)c1-c1ccc2c(-c3cnn(C)c3)cn(Cc3ccccc3Cl)c2c1` [P-0227, 4-[1-[(2-chlorophenyl)methyl]-3-(1-methylpyrazol-4-yl)indol-6-yl]-3,5-dimethyl-isoxazole], the figure is less than 10 µM; as for `Cc1noc(C)c1-c1ccc2c(-c3cnn(C)c3)cn(Cc3ccccc3C(F)(F)F)c2c1` [P-0228, 3,5-dimethyl-4-[3-(1-methylpyrazol-4-yl)-1-[[2-(trifluoromethyl)phenyl]methyl]indol-6-yl]isoxazole], less than 10 µM; as for `Cc1noc(C)c1-c1ccc2c(-c3cnn(C)c3)cn(Cc3c(F)cccc3F)c2c1` [P-0229, 4-[1-[(2,6-difluorophenyl)methyl]-3-(1-methylpyrazol-4-yl)indol-6-yl]-3,5-dimethyl-isoxazole], less than 10 µM.
As to `Cc1noc(C)c1-c1ccc2c(-c3cnn(C)c3)cn(C(C)c3ccccc3)c2c1` (centres unmarked) [P-0232, 3,5-dimethyl-4-[3-(1-methylpyrazol-4-yl)-1-(1-phenylethyl)indol-6-yl]isoxazole], the IC50 is less than 10 µM.
As for `[2H]C([2H])(F)C(c1ccccc1)n1cc(-c2cnn(C)c2)c2ncc(-c3c(C)noc3C)cc21` (centres unmarked) [P-0233, 4-[1-(2,2-dideuterio-2-fluoro-1-phenyl-ethyl)-3-(1-methylpyrazol-4-yl)pyrrolo[3,2-b]pyridin-6-yl]-3,5-dimethyl-isoxazole], the figure is less than 10 µM; as for `Cc1noc(C)c1-c1cnc2c(I)cn(CC3(F)CCCCC3)c2c1` [P-0234, 4-[1-[(1-fluorocyclohexyl)methyl]-3-iodo-pyrrolo[3,2-b]pyridin-6-yl]-3,5-dimethyl-isoxazole], less than 10 µM; as for `Cc1noc(C)c1-c1cnc2c(-c3cnn(C(F)F)c3)cn(CC3(F)CCCCC3)c2c1` [P-0235, 4-[3-[1-(difluoromethyl)pyrazol-4-yl]-1-[(1-fluorocyclohexyl)methyl]pyrrolo[3,2-b]pyridin-6-yl]-3,5-dimethyl-isoxazole], less than 10 µM.
As for `Cc1noc(C)c1-c1cnc2c(-c3cnn(C4CC4)c3)cn(CC3(F)CCCCC3)c2c1` [P-0236, 4-[3-(1-cyclopropylpyrazol-4-yl)-1-[(1-fluorocyclohexyl)methyl]pyrrolo[3,2-b]pyridin-6-yl]-3,5-dimethyl-isoxazole], the figure is less than 10 µM; as for `Cc1noc(C)c1-c1cnc2c(-c3cnn(CC(F)(F)F)c3)cn(CC3(F)CCCCC3)c2c1` [P-0237, 4-[1-[(1-fluorocyclohexyl)methyl]-3-[1-(2,2,2-trifluoroethyl)pyrazol-4-yl]pyrrolo[3,2-b]pyridin-6-yl]-3,5-dimethyl-isoxazole], less than 10 µM.
